Experimental data as given in the SangsterLogP compilation.

Test: not given
Details: not given
With `FC(F)(F)c1nc2c(Cl)c(Cl)cc(Cl)c2[nH]1` the logP was 3.78. In the case of `FC(F)(F)c1nc2c(Cl)c(Cl)c(Cl)c(Cl)c2[nH]1`, the logP was 3.97. Work on `FC(F)(F)c1nc2ccccc2[nH]1` yielded a logP of 2.67. With `FC(F)(F)c1nc2c(Br)c(Br)c(Br)cc2[nH]1` the logP was 4.08. For `FC(F)(F)c1nc2c(Br)c(Br)c(Br)c(Br)c2[nH]1`, the logP was 4.81. For `FC(F)(F)c1nc2cc(Cl)ccc2[nH]1`, the logP was 3.39. For `FC(F)(F)c1nc2cc(Br)c(Br)cc2[nH]1`, the logP was 4.15. `FC(F)(F)c1nc2cc(Cl)c(Cl)cc2[nH]1` gave a logP of 3.99. In the case of `Brc1nc(Br)c2[nH]c(Br)nc2n1`, the logP was 3.08. In the case of `FC(F)(F)c1nc2c(Cl)c(Cl)ccc2[nH]1`, the logP was 3.49. Work on `Brc1nn[nH]c1Br` yielded a logP of 2.44. For `CCCCCCCCc1ccc2[nH]c(C(F)(F)F)nc2c1`, the logP was 4.38. `FC(F)(F)c1nc2cc(Br)ccc2[nH]1` showed a logP of 3.57. In the case of `CCCCc1ccc2[nH]c(C(F)(F)F)nc2c1`, the logP was 4.27. For `FC(F)(F)c1nc2c(Cl)cc(Cl)cc2[nH]1`, the logP was 3.49. With `Brc1n[nH]c(Br)n1` the logP was 2.24. For `Cc1c(C)c(Cl)c2[nH]c(C(F)(F)F)nc2c1Cl`, the logP was 3.19. With `FC(F)(F)c1nc2c(Cl)c(Cl)c(Cl)cc2[nH]1` the logP was 3.87. `FC(F)(F)c1nc2c(Cl)ccc(Cl)c2[nH]1` showed a logP of 2.87. `O=[N+]([O-])c1ccc2[nH]c(C(F)(F)F)nc2c1` showed a logP of 2.68. Work on `Ic1nc(I)c(I)[nH]1` yielded a logP of 2.78. `CSc1nc2cc(Cl)ccc2[nH]1` gave a logP of 3.22. In the case of `Cc1cc2nc[nH]c2cc1C`, the logP was 2.35. `FC(F)(F)c1nc2c(Cl)cccc2[nH]1` showed a logP of 2.93. `Clc1nc(Cl)c(Cl)[nH]1` gave a logP of 1.85.

Test: from Büchel, K. H., & Draber, W. (1969). Structure-activity relationship of photosynthesis inhibition by NH-acidic pi-excessive heteroaromatics. In H. Metzner (Ed.), Progress in Photosynthesis Research: …
Details: pH 7.3
`FC(F)(F)c1nc2cnccc2[nH]1` gave a logD of 0.94. For `FC(F)(F)c1nc2nc3cc(Cl)ccc3nc2[nH]1`, the logD was 3.91. For `FC(F)(F)c1nc2nc3ccccc3nc2[nH]1`, the logD was 3.08. In the case of `FC(F)(F)c1nc2ncc(Cl)cc2[nH]1`, the logD was 2.46. Work on `FC(F)(F)c1nc2ncccc2[nH]1` yielded a logD of 1.38. `FC(F)(F)c1nc2nc3c(Cl)cc(Cl)cc3nc2[nH]1` gave a logD of 5.18.
